{"source": "patent US11733246B2", "about": "“Compositions, imaging, and therapeutic methods targeting folate receptor 1 (FOLR1)” (Indi Molecular, Inc., priority 2020, dated 2023)", "key": {"FOLR1 [1]": {"target": "T1, FOLR1 (Homo sapiens, UniProt P15328)", "T1 construct": "His; purchased SinoBiological 11241-H08H", "T1 sequence (P15328 25-234)": "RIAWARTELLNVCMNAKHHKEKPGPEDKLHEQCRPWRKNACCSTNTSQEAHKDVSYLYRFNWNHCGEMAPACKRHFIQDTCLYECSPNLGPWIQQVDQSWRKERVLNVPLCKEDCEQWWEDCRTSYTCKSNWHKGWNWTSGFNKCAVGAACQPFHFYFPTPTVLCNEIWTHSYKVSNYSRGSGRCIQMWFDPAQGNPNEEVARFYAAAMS", "assay": "Competition ELISA with folic acid", "format": "binding", "experimental": "A competition experiment was conducted to further understand the binding kinetics of the lead heterobiligand (folate-hshta (SEQ ID NO:6) Nterm heterobiligand).\n(§1) Nonclinical studies were first conducted with Folate-hshta-PEG10-PEG10-K(Biotin), where Folate-hshta is the targeting heterobiligand, PEG10 is a deca(ethylene glycol) linker, and K(Biotin) is the detection label. […] Cross reactivity with the murine folate receptor was also observed. […] In the merged image, purple puncta were observed indicating co-localization of internalized heterobiligand with early endosomes (Rab5a+ vesicles) in OVCAR3 cells."}, "PC3 FOLR1− cells": {"test_system": "PC3 FOLR1− cells", "assay": "Flow cytometry binding to FOLR1 (−) cells", "format": "cell-based, human", "experimental": "(§2) Both the kyeet (SEQ ID NO:9) and hshta (SEQ ID NO:6)-derived biligands were tested by flow cytometry for binding to FOLR1 (+) and FOLR1 (−) cell lines (FIGS. 6 and 7). The human ovarian adenocarcinoma-derived cell line OVCAR3 has robust FOLR1 expression and was selected as the FOLR1 (+) cell line. The human prostate adenocarcinoma-derived cell line PC-3 was selected as a FOLR1 (−) cell line."}, "FOLR1 [2]": {"target": "T1, FOLR1", "assay": "ELISA assay of FOLR1 binding", "conditions": "ELISA", "text": "FIG. 5 is a diagram of ELISA assay of FOLR1 binding of heterobiligands.\nNonclinical studies were first conducted with Folate-hshta-PEG10-PEG10-K(Biotin), where Folate-hshta is the targeting heterobiligand, PEG10 is a deca(ethylene glycol) linker, and K(Biotin) is the detection label."}, "OVCAR3 cells": {"test_system": "OVCAR3 cells", "assay": "Cell internalization assay (acid wash, flow cytometry)", "format": "cell-based, human", "experimental": "FIG. 10 is a diagram of an assay for assessing cell internalization FOLR1 heterobiligands.\nThe folate-hshta (SEQ ID NO:6) Nterm heterobiligand was also evaluated in cell penetration imaging assays (FIG. 10). OVCAR3 and PC-3 cells were incubated with the test article at 37° C. for 1 hour. Flow cytometry analysis of the resulting treated cells indicated strong binding to FOLR1 (+) cells. To understand the proportion bound to the surface but not internalized, the cells were briefly washed with acid to liberate the non-internalized peptide.\nas §1"}, "OVCAR3 FOLR1+ cells": {"test_system": "OVCAR3 FOLR1+ cells", "assay": "Flow cytometry binding to FOLR1 (+) cells", "format": "cell-based, human", "experimental": "as §2\nCompetition at the cellular level was also probed.\nIncreasing the serum-bound fraction of the peptide may decrease first pass removal of the heterobiligand, and drive compound retention of tumor over kidney. Constructs bearing the known albumin binder 4-methylphenyl butyric acid (4-MPBA) were synthesized. These compounds were evaluated in vitro to verify binding fidelity to FOLR1. The modified heterobiligands were incubated at 400 nM with OVCAR3 and PC-3 cells for 20 minutes at 37° C. in complete media containing 20% FBS. They both bind to OVCAR3 FOLR1+ cells with similar binding affinities as the original heterobiligand studied (FIG. 14). […] Similar activity of these heterobiligands is anticipated in vivo."}, "OVCAR3 xenografts": {"test_system": "OVCAR3 xenografts", "assay": "177Lu FOLR1 radioligand therapy in OVCAR3 xenograft model", "format": "in vivo, mouse", "experimental": "Water and food were provided ad libitum. […] Tumor growth was monitored by caliper measurements.\nOVCAR3 tumor bearing mice were used to study FOLR1-directed radioligand therapy (RLT) for treatment of ovarian cancer. Animals were administered a single dose of heterobiligand (vehicle control) or 111, 37, 18.5, 9.25, or 3.7 MBq [^177Lu]DOTA-labeled heterobiligand. Mice received the dose intravenously (i.v.) via the tail vein. To monitor the effect of the RLT, tumor size measurements were taken twice weekly and body weights were measured.\nThe engraftment was allowed to expand until palpable tumor sizes ranging in size from 218-384 mm^3 were detected. […] These observed effects were consistant with radiation overdosing. […] The best response was observed using 9.25 MBq Lu-177 Heterobiligand (compound #2809).\nSingle dose treatments at 18.5 MBq/nmol specific activity. OVCAR3 mouse model was used. 10^7 cell tumors were implanted in the mice one month before administration of ^177Lu-#6305. Five mice each were administered Cold #6305, 9.25 MBq Lu177-#6305, and 14.8 MBq Lu177-#6305, and two mice were administered 29.6 MBq Lu177-#6305. Tumor growth and body weight were then monitored.\nFemale NSG mice were implanted subcutaneously with OVCAR3 cells. Once tumors reached volumes of 200 mm^3, the animals were treated with 177-Lu 7327. Three treatment arms of 9.25 MBq, 14.8 MBq, and 29.6 MBq were studied.\nFemale NSG mice were implanted subcutaneously with human OVCAR3 (FOLR+) ovarian cancer cells. Once tumors reached volumes of 200 mm^3, the animals were treated with Indi ^177Lu-7327. One treatment arm of 74 MBq and a control group of 0 MBq were studied (FIGS. 41 and 38A). […] The second dose was administered 21 days following the first dose. Statistically significant differential between treated and control was reached 24 days post-injection (three days following the second dose) for the 74 MBq arm. P values (* for p≤0.05, ** for p≤0.01) were determined by ordinary one-way ANOVA with Tukey's multiple comparisons test."}, "[3]": {"conditions": "mouse, in vivo", "experimental": "At endpoint, mice were sacrificed and plasma and tissues (tumor, kidney, liver, lung, muscle) were collected. Plasma samples were assayed for urea and creatinine biomarkers indicative of nephrotoxicity. Tissue samples were fixed in 10% buffered formalin, transferred to 70% ethanol, and embedded in paraffin for immunohistochemistry.\nThe heterobiligand dosed in these studies is Folate-hshta-PEG3-Lys(MPBA)-Lys(DOTA) (Compound #2809; SEQ ID NO:6)) labeled with ^177Lu. Plasma samples taken from tumor-bearing mice (at each dose) were assayed for biomarkers indicative of nephrotoxicity. These samples were compared to plasma taken from normal mice. Elevated urea levels in plasma could indicate kidney damage. Endogenous urea is converted to ammonia and carbon dioxide by the addition of urease. Berthelot's reagent reacts with the dissolved ammonia. The resulting green coloration can be used to back-calculate the amount of urea present in the original plasma sample.\nMouse plasma samples (five mice each from the 0 MBq control group, 3.7 MBq group, and 9.25 MBq group) taken at endpoint and normal mouse plasma were evaluated in urea assays to gain information on renal function. […]\nIn order to understand the toxicity-limiting tissues and organs, plasma was collected from the therapy studies and analyzed for blood urea nitrogen (BUN) and creatinine. […]"}}, "note": "Where “and” joins values, the source holds several entries; their conditions need not be identical. Identical values can stand only once. Numbered stars: 1 amine (or outer) side, 2 acyl side, 3 side chain; on linkers, the order of the positions; unused ones are H or OH. Bridge positions count the residues as written; N and C are the ends. Square brackets hold non-standard residues; d marks the D form. Triazole bridges read from a SMILES are 1,4-linked. Peptide text beside a SMILES is read from it. * marks the point of attachment. DOTA = O=C(O)CN1CCN(CC(=O)O)CCN(CC(=O)*)CCN(CC(=O)O)CC1; Pteroyl = Nc1nc2ncc(CNc3ccc(C(=O)*)cc3)nc2c(=O)[nH]1; Biotin = O=C1N[C@H]2[C@H](CS[C@H]2CCCCC(=O)*)N1; PEG10 = NCCOCCOCCOCCOCCOCCOCCOCCOCCOCCOCCC(=O)O; Butanoyl(4-(4-MePh)) = Cc1ccc(CCCC(=O)*)cc1; Lys(N3) = [N-]=[N+]=NCCCC[C@H](N)C(=O)O; γGlu = O=C(O)[C@H](CCC(=O)[*:2])N[*:1]; AEEEA = NCCOCCOCCOCC(=O)O; Pra = C#CC[C@H](N)C(=O)O", "data": [{"smiles": "C[C@H](O)[C@H]1NC(=O)[C@@H](Cc2c[nH]cn2)NC(=O)[C@@H](CO)NC(=O)[C@@H](Cc2c[nH]cn2)NC(=O)[C@@H](NC(=O)CC[C@H](NC(=O)c2ccc(NCc3cnc4nc(N)[nH]c(=O)c4n3)cc2)C(=O)O)Cc2cn(nn2)CCCC[C@@H](C(=O)NCCOCCOCCOCCOCCOCCOCCOCCOCCOCCOCCC(=O)NCCOCCOCCOCCOCCOCCOCCOCCOCCOCCOCCC(=O)N[C@@H](CCCCNC(=O)CCCC[C@@H]2SC[C@@H]3NC(=O)N[C@@H]32)C(N)=O)NC(=O)[C@@H](C)NC1=O", "note": "[Folate-hshta Nterm, Folate-hshta-PEG10-PEG10-K(Biotin)] ({Pteroyl-γGlu}-[Pra][dH][dS][dH][dT][dA][Lys(N3)][PEG10][PEG10]K(Biotin)-NH2; triazole 1-7)", "values": [{"measurement": "displacement by exogenous folate in competitive ELISA", "setting": "FOLR1 [1]", "result": "resilient to displacement by exogenous folate"}, {"measurement": "binding affinity of the heterobiligand in presence of folic acid", "setting": "FOLR1 [1]; folic acid from 0 to 500 nM", "result": "virtually unchanged"}, {"measurement": "competition by folic acid", "setting": "FOLR1 [1]; folic acid greater than 500 nM", "result": "partially compete away"}, {"measurement": "binding of PC3 FOLR1− cells", "setting": "PC3 FOLR1− cells", "result": "low non-specific binding"}, {"measurement": "affinity relative to folate itself", "setting": "FOLR1 [2]", "result": "~30", "unit": "fold"}, {"measurement": "percentage of positively stained cells", "setting": "OVCAR3 cells; OVCAR3, 37° C. 1 hour, before acid treatment", "result": 73.4, "unit": "%"}, {"measurement": "percentage of positively stained cells", "setting": "OVCAR3 cells; OVCAR3, following acid treatment", "result": 54.2, "unit": "%"}, {"measurement": "percentage of OVCAR3 cells binding", "setting": "OVCAR3 FOLR1+ cells; 0.1 μg/mL folate", "result": 57, "unit": "%"}, {"measurement": "selectivity for FOLR1 (+) cells over FOLR1 (−) cells", "setting": "OVCAR3 FOLR1+ cells; OVCAR3 vs PC-3, flow cytometry", "result": "high selectivity for FOLR1 (+) cells"}, {"measurement": "binding against OVCAR3 FOLR1+ cells", "setting": "OVCAR3 FOLR1+ cells; flow cytometry", "result": "Dose-dependent binding"}, {"measurement": "selectivity compared with commercially available FOLR1 antibody", "setting": "OVCAR3 FOLR1+ cells; flow cytometry", "result": "superior to a commercially available FOLR1 antibody"}, {"measurement": "binding against OVCAR3 FOLR1+ cells", "setting": "OVCAR3 FOLR1+ cells; flow cytometry, listed as lead heterobiligand", "result": "best binding"}, {"measurement": "displacement by exogenous folic acid at the cellular level", "setting": "OVCAR3 FOLR1+ cells; increasing exogenous folic acid, flow cytometry", "result": "more resilient to folic acid displacement than biotinylated folic acid"}, {"measurement": "percentage of OVCAR3 cells binding", "setting": "OVCAR3 FOLR1+ cells; no folate", "result": 76.6, "unit": "%"}]}, {"smiles": "Cc1ccc(CCCC(=O)NCCCC[C@H](NC(=O)COCCOCCOCCNC(=O)[C@@H]2CCCCn3cc(nn3)C[C@H](NC(=O)CC[C@H](NC(=O)c3ccc(NCc4cnc5nc(N)[nH]c(=O)c5n4)cc3)C(=O)O)C(=O)N[C@H](Cc3c[nH]cn3)C(=O)N[C@H](CO)C(=O)N[C@H](Cc3c[nH]cn3)C(=O)N[C@H]([C@H](C)O)C(=O)N[C@H](C)C(=O)N2)C(=O)N[C@@H](CCCCNC(=O)CN2CCN(CC(=O)O)CCN(CC(=O)O)CCN(CC(=O)O)CC2)C(N)=O)cc1", "note": "[^177Lu-#2809, metal not drawn] ({Pteroyl-γGlu}-[Pra][dH][dS][dH][dT][dA][Lys(N3)][AEEEA]K(Butanoyl(4-(4-MePh)))K(DOTA)-NH2; triazole 1-7)", "values": [{"measurement": "Comments (deaths / survival)", "setting": "OVCAR3 xenografts; ^177Lu dose 0 (peptide alone), 3 mice", "result": "Sacrificed on day 24"}, {"measurement": "Comments (deaths / survival)", "setting": "OVCAR3 xenografts; ^177Lu dose 0.1 mCi (3.7 MBq), 2 mice", "result": "Sacrificed on day 24"}, {"measurement": "Comments (deaths / survival)", "setting": "OVCAR3 xenografts; ^177Lu dose 0.25 mCi (9.25 MBq), 2 mice", "result": "Sacrificed on day 24"}, {"measurement": "Comments (deaths / survival)", "setting": "OVCAR3 xenografts; ^177Lu dose 0.5 mCi (18.5 MBq), 2 mice, listed as DOTA-Heterobiligand Albumin binder conjugate", "result": "1 mouse died on day 10 and 1 mouse died on day 13"}, {"measurement": "Comments (deaths / survival)", "setting": "OVCAR3 xenografts; ^177Lu dose 1 mCi (37 MBq), 2 mice", "result": 2, "unit": "mice died on day 10"}, {"measurement": "Comments (deaths / survival)", "setting": "OVCAR3 xenografts; ^177Lu dose 3 mCi (111 MBq), 3 mice, listed as DOTA-Heterobiligand Albumin binder conjugate", "result": "1 mouse died on day 5 and 2 mice died on day 4"}, {"measurement": "BUN level relative to normal mice", "setting": "[3]", "result": 1.5, "unit": "times"}]}]}
